The values below come from ChEMBL document CHEMBL1201862, “PubChem BioAssay data set” (2004).

Among the test systems are SNB-75; RPMI-8226; RXF 393; U-251; HOP-92; BT-549; MDA-MB-435; HCT-116; NCI-H23; SF-295; SN12C; MDA-MB-231; UACC-257; UO-31; CAKI-1; MDA-N; SW-620; SF-268; MCF7; MOLT-4.
Holding throughout (experiment): DTP human tumour cell line panel, 48 h

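Interpolation was linear, between the two tested concentrations surrounding the appropriate level; five concentrations were tested over 48 hours in 96-well plates. GI50 = concentration required for 50% inhibition of growth.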 Active and inactive are the calls of the source. No stated cut-off is given here; in the data, active = GI50 up to about 1.1 µM and inactive = higher.

What is called GI50 is the concentration giving 50% growth inhibition. For the compound `O=C(O)C1OC1C(=O)O` (stereo not drawn), the GI50 in the test on SNB-75, in the test on RPMI-8226, in the test with RXF 393, in the test on U-251, with HOP-92 and in the test on BT-549 was > 100 µM (inactive) in each case. Also, the GI50 in the test on MDA-MB-435, in the test on HCT-116, in the test with NCI-H23, in the test with SF-295, in the test with SN12C and in the test with MDA-MB-231 was > 100 µM (inactive) each time. Moreover, the GI50 with UACC-257, in the test with UO-31, with CAKI-1, with MDA-N, in the test on SW-620 and in the test on SF-268 was > 100 µM (inactive) throughout. In addition, the GI50 in the test on MCF7 was > 100 µM (inactive).
Turning to `CCN(CC)c1ccc(/C=C2\CCc3ccc([N+](=O)[O-])cc3C2=O)cc1`, the GI50 in the test with SNB-75 was 2.52 µM (inactive); in the test with RPMI-8226, 0.391 µM (active); in the test on RXF 393, 2.99 µM (inactive); in the test on U-251, 1.7 µM (inactive); in the test on HOP-92 it was > 100 µM (inactive); in the test with BT-549 it was > 100 µM (inactive). The GI50 with MDA-MB-435 was 0.169 µM (active); in the test with HCT-116, 0.199 µM (active); in the test with NCI-H23, 7.62 µM (inactive); with SF-295, 1.4 µM (inactive); in the test on SN12C, 2.99 µM (inactive); with MDA-MB-231 it was 2.61 µM (inactive). Also, the GI50 was 0.488 µM (active) in the test on MOLT-4; 7.46 µM (inactive) in the test with UO-31; > 26.6 µM (inactive) with CAKI-1; 0.17 µM (active) in the test with MDA-N; 0.297 µM (active) in the test with SW-620; 14.4 µM (inactive) in the test with SF-268. Also, in the test on MCF7, the GI50 is 0.535 µM (active).
Take `Cn1c2ccc(Cl)cc2c2ccc3c(c21)C(=O)C=CC3=O`: the GI50 in the test with SNB-75, in the test on RPMI-8226, in the test with U-251, in the test on HOP-92, in the test with BT-549 and with MDA-MB-435 was > 10 µM (inactive) throughout. In addition, the GI50 with HCT-116, in the test on NCI-H23, in the test with SF-295, in the test on SN12C, in the test with MDA-MB-231 and in the test with UACC-257 was > 10 µM (inactive) in each case. The GI50 is 6.44 µM (inactive) with MOLT-4; > 10 µM (inactive) with CAKI-1; > 10 µM (inactive) in the test on MDA-N; > 10 µM (inactive) in the test with SW-620; > 10 µM (inactive) in the test with SF-268; > 10 µM (inactive) in the test on MCF7.
Regarding `C/C=C/C1OC(O)(C(C)C(O)[C@H](C)C2OC(=O)/C(OC)=C/C(C)=C/[C@@H](C)[C@@H](O)[C@@H](C)C(O)C(C)C/C(C)=C/C=C/C2OC)C[C@@H](OC2CC(O)C(OC(N)=O)C(C)O2)C1C` (stereo partly drawn), the GI50 with SNB-75 is < 0.01 µM (active); in the test with RPMI-8226, < 0.01 µM (active); with U-251, < 0.0167 µM (active); in the test on HOP-92, < 0.01 µM (active); in the test with BT-549, < 0.01 µM (active); with MDA-MB-435, < 0.01 µM (active). Also, the GI50 in the test with HCT-116, in the test with NCI-H23, in the test with SF-295, with SN12C, with MDA-MB-231 and in the test on UACC-257 was < 0.01 µM (active) each time. The GI50 with MOLT-4, in the test with UO-31, in the test on CAKI-1, with MDA-N, in the test with SW-620 and in the test on SF-268 was < 0.01 µM (active) each time. The GI50 in the test with MCF7 is < 0.01 µM (active).
For `Cc1cccc(C)c1NC(=O)C(=O)CC(=O)c1sc(Nc2c(C)cccc2C)nc1C`, the GI50 in the test on SNB-75 is 22.7 µM (inactive); in the test with RPMI-8226, > 100 µM (inactive); with RXF 393 it was 61.1 µM (inactive); in the test with U-251, > 100 µM (inactive); in the test on HOP-92, > 100 µM (inactive); in the test on BT-549, > 100 µM (inactive). Moreover, the GI50 in the test on MDA-MB-435, with HCT-116, in the test with NCI-H23, in the test on SF-295, with SN12C and in the test on MDA-MB-231 was > 100 µM (inactive) in each case. The GI50 was > 100 µM (inactive) in the test on UACC-257; > 100 µM (inactive) with MOLT-4; 50.8 µM (inactive) in the test with UO-31; > 100 µM (inactive) in the test on CAKI-1; > 100 µM (inactive) in the test with MDA-N; > 100 µM (inactive) in the test with SW-620. Besides, the GI50 in the test with SF-268 and in the test on MCF7 was > 100 µM (inactive) in each case.
Take `COc1cc(C2c3cc4c(cc3OC(NN=C(C)C)C2C)OCO4)cc(OC)c1O` (stereo not drawn): the GI50 is 3.66 µM (inactive) in the test with SNB-75; 6.21 µM (inactive) with RPMI-8226; 24.7 µM (inactive) in the test on RXF 393; 29.2 µM (inactive) with U-251; 62.4 µM (inactive) with HOP-92; 12.2 µM (inactive) with BT-549. The GI50 is 1.24 µM (inactive) with MDA-MB-435; 24.9 µM (inactive) in the test with HCT-116; 26.7 µM (inactive) in the test with NCI-H23; 18.9 µM (inactive) in the test with SF-295; 8.39 µM (inactive) with SN12C; 27.9 µM (inactive) in the test on MDA-MB-231. For the same compound, the GI50 with UACC-257 was 89.3 µM (inactive); with UO-31, 46.9 µM (inactive); in the test with CAKI-1, 61.5 µM (inactive); in the test with MDA-N, 3 µM (inactive); with SW-620 it was 6.93 µM (inactive); in the test with SF-268 it was 31.5 µM (inactive). Further, in the test on MCF7, the GI50 is 12.4 µM (inactive).
On to `COc1ccc2c(c1)CCC1=CC3(CCC12C)SCCS3` (stereo not drawn), for which the GI50 in the test on SNB-75 is 0.649 µM (active); in the test on RPMI-8226, 3.5 µM (inactive); in the test on U-251, 9.73 µM (inactive); in the test with HOP-92 it was 4.97 µM (inactive); in the test on BT-549, > 10 µM (inactive); in the test with MDA-MB-435, 3.74 µM (inactive). The GI50 in the test on NCI-H23 was 6.82 µM (inactive); in the test on SF-295 it was 3.87 µM (inactive); in the test on SN12C, 9.25 µM (inactive); in the test with MDA-MB-231 it was 4.08 µM (inactive); with UACC-257 it was > 10 µM (inactive); with MOLT-4, 3.8 µM (inactive). Moreover, the GI50 was 7.52 µM (inactive) in the test on CAKI-1; 2.59 µM (inactive) in the test with MDA-N; 4.56 µM (inactive) in the test on SW-620; 3.13 µM (inactive) in the test on SF-268; 3.48 µM (inactive) in the test on MCF7.
With `O=C1c2ccccc2C(=O)c2c(NCCNC(=O)C3CCCN3)ccc(NCCNC(=O)C3CCCN3)c21` (stereo not drawn), the GI50 was 53.3 µM (inactive) in the test on SNB-75; 22.6 µM (inactive) in the test on RPMI-8226; 37.2 µM (inactive) in the test on U-251; 41 µM (inactive) with HOP-92; 29.9 µM (inactive) in the test with BT-549; 55.8 µM (inactive) with MDA-MB-435. Besides, the GI50 in the test on HCT-116 is 2.65 µM (inactive); in the test on NCI-H23, 52.8 µM (inactive); in the test with SF-295, > 100 µM (inactive); in the test with SN12C, 46 µM (inactive); in the test with MDA-MB-231, 23.7 µM (inactive); in the test on UACC-257, > 100 µM (inactive). For the same compound, the GI50 with MOLT-4 is 22.1 µM (inactive); in the test with UO-31, 31.5 µM (inactive); with CAKI-1, > 100 µM (inactive); in the test on MDA-N, 46.5 µM (inactive); in the test on SW-620, 40.4 µM (inactive); in the test with SF-268, 34.1 µM (inactive). In the test with MCF7, the GI50 is 30.8 µM (inactive).
Take `c1ccc(C(C2=Nc3cccc4cccc(c34)N2)c2ccccc2)cc1`: the GI50 with SNB-75 is 22.3 µM (inactive); with RPMI-8226, 21.6 µM (inactive); with RXF 393, 27.3 µM (inactive); in the test with U-251, 18 µM (inactive); in the test with HOP-92, 18.7 µM (inactive); with BT-549 it was 22 µM (inactive). Also, the GI50 with MDA-MB-435 is 25.5 µM (inactive); in the test on HCT-116 it was > 10 µM (inactive); in the test with NCI-H23 it was 28.1 µM (inactive); with SF-295, 21.1 µM (inactive); with SN12C, 14.8 µM (inactive); in the test on MDA-MB-231, 30.8 µM (inactive). Further, the GI50 in the test with UACC-257 is 24.5 µM (inactive); with UO-31 it was 17.8 µM (inactive); in the test with CAKI-1, 22.6 µM (inactive); in the test on MDA-N, 23.4 µM (inactive); in the test on SW-620, 47.3 µM (inactive); with SF-268, 24.4 µM (inactive). In addition, in the test on MCF7, the GI50 is 31.8 µM (inactive).
On to `CC1=NN(c2cc(Cl)c(S(=O)(=O)O)cc2Cl)C2(C1)C(Cl)C(=O)N2c1nc2ccccc2s1` (stereo not drawn), for which the GI50 in the test on SNB-75 was > 100 µM (inactive); with RPMI-8226, 79.3 µM (inactive); with RXF 393, > 100 µM (inactive); in the test with U-251 it was > 100 µM (inactive); in the test with HOP-92, > 100 µM (inactive); in the test on BT-549 it was > 100 µM (inactive). Also, the GI50 with MDA-MB-435 is 84.3 µM (inactive); in the test with HCT-116, > 100 µM (inactive); in the test with NCI-H23, 91 µM (inactive); in the test with SN12C, > 100 µM (inactive); in the test on MDA-MB-231, 42.6 µM (inactive); in the test with UACC-257 it was > 100 µM (inactive). In addition, the GI50 in the test on MOLT-4 was 45.6 µM (inactive); in the test with UO-31 it was 22.2 µM (inactive); in the test with CAKI-1 it was > 100 µM (inactive); in the test on MDA-N it was > 100 µM (inactive); with SW-620, > 100 µM (inactive); in the test with SF-268, > 100 µM (inactive). In addition, the GI50 in the test on MCF7 is 46.2 µM (inactive).
